Tests used:
Assay in all cases: General post-emergent herbicidal activity, foliar application
Format in all cases: in vivo
[1] = system: Viola tricolor L. (pansy); settings: for pest or weed control at 70 g/ha: 70 g ai/ha; for pest or weed control at 140 g/ha: 140 g ai/ha; for GR80 Value VIOTR: calculated by probit analysis, dose for 80% visual injury, may be extrapolated; for pest or weed control at 280 g/ha: 280 g ai/ha
Outline: (§1)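 Compounds in acetone/DMSO 97:3 were diluted into aqueous spray mix with isopropanol, crop oil concentrate and Triton X-155, then serially diluted to 1/2×–1/16× of the top rate and sprayed on foliage. Plants were kept in greenhouse with sub-irrigation. Injury was scored visually (0–100%) at 14 days; GR20/GR50/GR80 came from probit analysis.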

[2] = system: Chenopodium album L. (lambsquarters, common); settings: for pest or weed control at 70 g/ha: 70 g ai/ha; for pest or weed control at 140 g/ha: 140 g ai/ha; for pest or weed control at 280 g/ha: 280 g ai/ha; for GR80 Value CHEAL: calculated by probit analysis, dose for 80% visual injury, may be extrapolated
Outline: as §1

[3] = system: Amaranthus retroflexus L. (pigweed, redroot); settings: for pest or weed control at 70 g/ha: 70 g ai/ha; for pest or weed control at 140 g/ha: 140 g ai/ha; for pest or weed control at 280 g/ha: 280 g ai/ha; for GR80 Value AMARE: calculated by probit analysis, dose for 80% visual injury, may be extrapolated
Outline: as §1

[4] = system: Euphorbia heterophylla L. (poinsettia, wild); settings: for pest or weed control at 70 g/ha: 70 g ai/ha; for pest or weed control at 140 g/ha: 140 g ai/ha; for pest or weed control at 280 g/ha: 280 g ai/ha; for GR80 Value EPHHL: calculated by probit analysis, dose for 80% visual injury, may be extrapolated
Outline: as §1

[5] = system: Echinochloa crus-galli (L.) Beauv. (barnyardgrass); settings: for pest or weed control at 70 g/ha: 70 g ai/ha; for pest or weed control at 140 g/ha: 140 g ai/ha; for pest or weed control at 280 g/ha: 280 g ai/ha; for GR80 Value ECHCG: calculated by probit analysis, dose for 80% visual injury, may be extrapolated
Outline: as §1

[6] = system: Helianthus annuus L. (sunflower, common); settings: for pest or weed control at 70 g/ha: 70 g ai/ha; for pest or weed control at 140 g/ha: 140 g ai/ha; for pest or weed control at 280 g/ha: 280 g ai/ha; for GR80 Value HELAN: calculated by probit analysis, dose for 80% visual injury, may be extrapolated
Outline: as §1

Oryza sativa L. (rice) = settings: Oryza sativa, 336 h, scored after 14 days, read-out: % Visual Growth Reduction ORYSA; for plant injury at 70 g/ha: 70 g ai/ha; for plant injury at 140 g/ha: 140 g ai/ha; for plant injury at 280 g/ha: 280 g ai/ha
Outline: (§2)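 Compounds in acetone/DMSO (97:3) diluted into aqueous spray with isopropanol, Atplus 411F crop oil and Triton X-155; top rate plus 1/2×–1/16× serial rates applied to foliage, solvent blank as control. Greenhouse, sub-irrigated; visual injury versus untreated plants scored 0–100% (100 = complete kill) after 14 days.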

Zea mays L. (corn) = settings: 336 h, scored after 14 days, read-out: % Visual Growth Reduction ZEAMX; for plant injury at 70 g/ha: 70 g ai/ha; for plant injury at 140 g/ha: 140 g ai/ha; for plant injury at 280 g/ha: 280 g ai/ha
Outline: as §2

[7] = Viola tricolor, 336 h, foliar post-emergent, scored after 14 days, read-out: % Visual Growth Reduction VIOTR
[8] = Chenopodium album, 336 h, foliar post-emergent, scored after 14 days, read-out: % Visual Growth Reduction CHEAL
[9] = Amaranthus retroflexus, 336 h, foliar post-emergent, scored after 14 days, read-out: % Visual Growth Reduction AMARE
[10] = Euphorbia heterophylla, 336 h, foliar post-emergent, scored after 14 days, read-out: % Visual Growth Reduction EPHHL
[11] = Echinochloa crus-galli, 336 h, foliar post-emergent, scored after 14 days, read-out: % Visual Growth Reduction ECHCG
[12] = Helianthus annuus, 336 h, foliar post-emergent, scored after 14 days, read-out: % Visual Growth Reduction HELAN

SMILES: Nc1cc(C(F)F)nc(C(=O)O)c1Cl [Compound F27]
- pest or weed control at 35 g/ha ([1]; Viola tricolor, 336 h, 35 g ai/ha, foliar post-emergent, scored after 14 days, read-out: % Visual Growth Reduction VIOTR): 80%
- pest or weed control at 70 g/ha [1, 7]: 100%
- pest or weed control at 140 g/ha [1, 7]: 100%
- GR80 Value VIOTR [1]: 59.2 g ai/ha
- pest or weed control at 35 g/ha ([2]; Chenopodium album, 336 h, 35 g ai/ha, foliar post-emergent, scored after 14 days, read-out: % Visual Growth Reduction CHEAL): 100%
- pest or weed control at 70 g/ha [2, 8]: 100%
- pest or weed control at 140 g/ha [2, 8]: 100%
- pest or weed control at 280 g/ha [2, 8]: 100%
- GR80 Value CHEAL [2]: <17.5 g ai/ha
- pest or weed control at 35 g/ha ([3]; Amaranthus retroflexus, 336 h, 35 g ai/ha, foliar post-emergent, scored after 14 days, read-out: % Visual Growth Reduction AMARE): 90%
- pest or weed control at 70 g/ha [3, 9]: 90%
- pest or weed control at 140 g/ha [3, 9]: 100%
- pest or weed control at 280 g/ha [3, 9]: 100%
- GR80 Value AMARE [3]: 17.5 g ai/ha
- pest or weed control at 35 g/ha ([4]; Euphorbia heterophylla, 336 h, 35 g ai/ha, foliar post-emergent, scored after 14 days, read-out: % Visual Growth Reduction EPHHL): 90%
- pest or weed control at 70 g/ha [4, 10]: 100%
- pest or weed control at 140 g/ha [4, 10]: 100%
- pest or weed control at 280 g/ha [4, 10]: 100%
- GR80 Value EPHHL [4]: <17.5 g ai/ha
- pest or weed control at 35 g/ha ([5]; Echinochloa crus-galli, 336 h, 35 g ai/ha, foliar post-emergent, scored after 14 days, read-out: % Visual Growth Reduction ECHCG): 0%
- pest or weed control at 70 g/ha [5, 11]: 65%
- pest or weed control at 140 g/ha [5, 11]: 80%
- pest or weed control at 280 g/ha [5, 11]: 80%
- GR80 Value ECHCG [5]: 187 g ai/ha
- pest or weed control at 35 g/ha ([6]; Helianthus annuus, 336 h, 35 g ai/ha, foliar post-emergent, scored after 14 days, read-out: % Visual Growth Reduction HELAN): 90%
- pest or weed control at 70 g/ha [6, 12]: 100%
- pest or weed control at 140 g/ha [6, 12]: 100%
- pest or weed control at 280 g/ha [6, 12]: 100%
- GR80 Value HELAN [6]: <17.5 g ai/ha
- plant injury at 70 g/ha (Oryza sativa L. (rice)): 13%
- plant injury at 140 g/ha (Oryza sativa L. (rice)): 15%
- plant injury at 280 g/ha (Oryza sativa L. (rice)): 20%
- plant injury at 35 g/ha (Zea mays L. (corn); 35 g ai/ha): 20%
- plant injury at 70 g/ha (Zea mays L. (corn)): 50%
- plant injury at 140 g/ha (Zea mays L. (corn)): 60%
- plant injury at 280 g/ha (Zea mays L. (corn)): 60%

SMILES: COC(=O)c1nc(C(Br)CBr)cc(N)c1Cl (stereo not drawn) [Compound F34, methyl 4-amino-3-chloro-6-(1,2-dibromoethyl)picolinate]
- pest or weed control at 264 g/ha ([1]; Viola tricolor, 336 h, 264 g ai/ha, foliar post-emergent, scored after 14 days, read-out: % Visual Growth Reduction VIOTR): 0%
- pest or weed control at 264 g/ha ([2]; Chenopodium album, 336 h, 264 g ai/ha, foliar post-emergent, scored after 14 days, read-out: % Visual Growth Reduction CHEAL): 60%
- pest or weed control at 264 g/ha ([3]; Amaranthus retroflexus, 336 h, 264 g ai/ha, foliar post-emergent, scored after 14 days, read-out: % Visual Growth Reduction AMARE): 0%
- pest or weed control at 264 g/ha ([4]; Euphorbia heterophylla, 336 h, 264 g ai/ha, foliar post-emergent, scored after 14 days, read-out: % Visual Growth Reduction EPHHL): 10%
- pest or weed control at 264 g/ha ([5]; Echinochloa crus-galli, 336 h, 264 g ai/ha, foliar post-emergent, scored after 14 days, read-out: % Visual Growth Reduction ECHCG): 0%
- pest or weed control at 264 g/ha ([6]; Helianthus annuus, 336 h, 264 g ai/ha, foliar post-emergent, scored after 14 days, read-out: % Visual Growth Reduction HELAN): 80%
- plant injury at 264 g/ha (Oryza sativa L. (rice); 264 g ai/ha): 0%
- plant injury at 264 g/ha (Zea mays L. (corn); 264 g ai/ha): 0%

SMILES: Nc1c(Cl)c(CF)nc(C(=O)O)c1Cl [Compound F25, 4-Amino-3,5-dichloro-6-(fluoromethyl)picolinic acid]
- pest or weed control at 140 g/ha [1, 7]: 0%
- pest or weed control at 280 g/ha [1, 7]: 0%
- GR80 Value VIOTR [1]: >280 g ai/ha
- pest or weed control at 140 g/ha [2, 8]: 80%
- pest or weed control at 280 g/ha [2, 8]: 80%
- GR80 Value CHEAL [2]: 176 g ai/ha
- pest or weed control at 140 g/ha [3, 9]: 80%
- pest or weed control at 280 g/ha [3, 9]: 85%
- GR80 Value AMARE [3]: 180 g ai/ha
- pest or weed control at 140 g/ha [4, 10]: 100%
- pest or weed control at 280 g/ha [4, 10]: 100%
- GR80 Value EPHHL [4]: <17.5 g ai/ha
- pest or weed control at 140 g/ha [5, 11]: 0%
- pest or weed control at 280 g/ha [5, 11]: 50%
- GR80 Value ECHCG [5]: 373 g ai/ha
- pest or weed control at 140 g/ha [6, 12]: 80%
- pest or weed control at 280 g/ha [6, 12]: 90%
- GR80 Value HELAN [6]: 146 g ai/ha
- plant injury at 140 g/ha (Oryza sativa L. (rice)): 0%
- plant injury at 280 g/ha (Oryza sativa L. (rice)): 0%
- plant injury at 140 g/ha (Zea mays L. (corn)): 0%
- plant injury at 280 g/ha (Zea mays L. (corn)): 0%

SMILES: CC(F)c1nc(C(=O)O)c(Cl)c(N)c1Cl (stereo not drawn) [Compound F16, 4-Amino-3,5-dichloro-6-(1-fluoroethyl)picolinic acid]
- pest or weed control at 70 g/ha [1, 7]: 0%
- pest or weed control at 140 g/ha [1, 7]: 0%
- pest or weed control at 280 g/ha [1, 7]: 0%
- GR80 Value VIOTR [1]: >280 g ai/ha
- pest or weed control at 70 g/ha [2, 8]: 100%
- pest or weed control at 140 g/ha [2, 8]: 100%
- pest or weed control at 280 g/ha [2, 8]: 100%
- GR80 Value CHEAL [2]: <17.5 g ai/ha
- pest or weed control at 70 g/ha [3, 9]: 90%
- pest or weed control at 140 g/ha [3, 9]: 90%
- pest or weed control at 280 g/ha [3, 9]: 100%
- GR80 Value AMARE [3]: 51.4 g ai/ha
- pest or weed control at 70 g/ha [4, 10]: 0%
- pest or weed control at 140 g/ha [4, 10]: 0%
- pest or weed control at 280 g/ha [4, 10]: 50%
- GR80 Value EPHHL [4]: 373 g ai/ha
- pest or weed control at 70 g/ha [5, 11]: 0%
- pest or weed control at 140 g/ha [5, 11]: 0%
- pest or weed control at 280 g/ha [5, 11]: 0%
- GR80 Value ECHCG [5]: >280 g ai/ha
- pest or weed control at 70 g/ha [6, 12]: 80%
- pest or weed control at 140 g/ha [6, 12]: 90%
- pest or weed control at 280 g/ha [6, 12]: 100%
- GR80 Value HELAN [6]: 31.4 g ai/ha
- plant injury at 70 g/ha (Oryza sativa L. (rice)): 0%
- plant injury at 140 g/ha (Oryza sativa L. (rice)): 0%
- plant injury at 280 g/ha (Oryza sativa L. (rice)): 0%
- plant injury at 70 g/ha (Zea mays L. (corn)): 0%
- plant injury at 140 g/ha (Zea mays L. (corn)): 0%
- plant injury at 280 g/ha (Zea mays L. (corn)): 0%

Source: US9603364B2 (Dow AgroSciences LLC, priority 2013, dated 2017)
